In data set [1] the target is T1, Receptor-interacting serine/threonine-protein kinase 4 (Homo sapiens, UniProt P57078).
T1 sequence (P57078 whole entry): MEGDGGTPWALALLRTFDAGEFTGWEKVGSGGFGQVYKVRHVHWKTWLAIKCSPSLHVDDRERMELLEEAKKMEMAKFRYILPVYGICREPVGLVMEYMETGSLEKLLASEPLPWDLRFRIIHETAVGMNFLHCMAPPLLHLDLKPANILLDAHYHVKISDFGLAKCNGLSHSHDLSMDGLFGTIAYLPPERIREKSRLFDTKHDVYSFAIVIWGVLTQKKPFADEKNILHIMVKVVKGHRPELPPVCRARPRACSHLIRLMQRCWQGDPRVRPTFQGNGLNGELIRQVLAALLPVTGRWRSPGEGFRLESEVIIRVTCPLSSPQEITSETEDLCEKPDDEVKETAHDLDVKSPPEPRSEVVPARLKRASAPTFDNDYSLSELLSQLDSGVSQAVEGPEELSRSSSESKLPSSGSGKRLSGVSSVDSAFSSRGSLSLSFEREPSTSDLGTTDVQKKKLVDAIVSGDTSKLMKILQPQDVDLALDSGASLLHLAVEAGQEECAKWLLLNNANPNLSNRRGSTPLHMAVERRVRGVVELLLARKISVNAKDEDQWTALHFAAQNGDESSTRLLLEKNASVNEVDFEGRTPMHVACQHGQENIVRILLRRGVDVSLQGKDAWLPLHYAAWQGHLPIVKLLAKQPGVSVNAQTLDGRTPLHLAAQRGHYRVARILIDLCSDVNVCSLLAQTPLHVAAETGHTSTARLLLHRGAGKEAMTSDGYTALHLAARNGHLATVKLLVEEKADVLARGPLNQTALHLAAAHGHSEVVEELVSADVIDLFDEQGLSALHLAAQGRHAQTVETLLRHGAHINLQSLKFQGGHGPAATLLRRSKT
Briefly: Inhibition of N-terminal polyHis-tagged human RIPK4 (1 to 321 residues) expressed in Sf9 cells using MBP as substrate preincubated for 15 mins followed by ATP addition measured after 90 mins by ADP-Glo assay. In general terms: ADP-Glo turns the ADP formed in a reaction into a luminescent signal.

For data set [2], the target named is Tyrosine-protein kinase ABL1 (Homo sapiens) (UniProt P00519). In words: Inhibition of human ABL relative to control. The following applies: concentration not given here.
Data set [3] addresses T2, Receptor-interacting serine/threonine-protein kinase 1 (Homo sapiens, UniProt Q13546).
T2 sequence (Q13546 whole entry): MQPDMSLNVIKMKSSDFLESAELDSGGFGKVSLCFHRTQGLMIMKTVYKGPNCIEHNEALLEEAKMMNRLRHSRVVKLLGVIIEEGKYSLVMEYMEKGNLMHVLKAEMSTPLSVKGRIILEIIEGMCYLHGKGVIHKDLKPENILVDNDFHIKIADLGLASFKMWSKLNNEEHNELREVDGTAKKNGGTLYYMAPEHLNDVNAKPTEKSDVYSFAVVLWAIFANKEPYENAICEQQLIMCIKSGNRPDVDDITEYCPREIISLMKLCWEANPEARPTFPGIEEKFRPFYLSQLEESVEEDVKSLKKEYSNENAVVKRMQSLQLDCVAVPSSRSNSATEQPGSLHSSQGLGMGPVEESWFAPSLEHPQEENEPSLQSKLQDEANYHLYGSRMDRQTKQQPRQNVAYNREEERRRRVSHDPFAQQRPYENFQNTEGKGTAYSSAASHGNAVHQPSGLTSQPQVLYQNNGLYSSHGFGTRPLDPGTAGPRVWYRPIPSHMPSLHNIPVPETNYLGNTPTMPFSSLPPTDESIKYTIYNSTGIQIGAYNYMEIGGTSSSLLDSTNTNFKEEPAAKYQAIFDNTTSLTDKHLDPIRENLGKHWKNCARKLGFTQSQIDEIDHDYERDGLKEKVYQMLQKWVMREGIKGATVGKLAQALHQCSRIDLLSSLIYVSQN
Briefly: Inhibition of N-terminal polyHis-tagged human RIPK1 (1 to 321 residues) expressed in Sf9 cells using MBP as substrate preincubated for 15 mins followed by ATP addition measured after 90 mins by ADP-Glo assay.

In data set [4] the target is T3, Receptor-interacting serine/threonine-protein kinase 2 (Homo sapiens, UniProt O43353). In words: Inhibition of RIPK2-mediated NF-kappaB signalling in C14-TriLAN-Gly-treated human THP-1 cells preincubated for 30 mins followed by C14-TriLAN-Gly addition measured after 24 hrs by luminescence based assay. The class given is cell-based.
The target in data set [5] is Vascular endothelial growth factor receptor 2 (Homo sapiens) (UniProt P35968). Briefly: Inhibition of human KDR relative to control. On the set-up: concentration or dose not given beside the values. The conditions noted are these: concentration not given here.
The target of data set [6] is Serine/threonine-protein kinase 10 (Homo sapiens) (UniProt O94804). In words: Inhibition of human LOK relative to control. The following applies: concentration not given here.
A short description of data set [7]: Metabolic stability in human liver microsomes assessed as compound remaining at 10 uM incubated for 45 mins by ECHO-MS analysis. In kind it is ADME, Microsome. The conditions noted are these: microsomes, 0.75 h, 10 µM. A general note: Microsomes from liver hold many membrane-bound enzymes, among them those of drug oxidation.
Data set [8] addresses T3, Receptor-interacting serine/threonine-protein kinase 2. Briefly: Inhibition of RIPK2-mediated NF-kappaB signalling in MDP-treated human THP-1 cells preincubated for 30 mins followed by MDP addition measured after 24 hrs by luminescence based assay. In kind it is cell-based.
In data set [9] the target is Receptor-interacting serine/threonine-protein kinase 3 (Homo sapiens, UniProt Q9Y572). Briefly: Inhibition of N-terminal polyHis-tagged human RIPK3 (1 to 307 residues) expressed in Sf9 cells using MBP as substrate preincubated for 15 mins followed by ATP addition measured after 90 mins by ADP-Glo assay.
Data set [10] can be described thus: Metabolic stability in mouse plasma assessed as compound remaining at 5 uM incubated for 120 mins by ECHO-MS analysis. The class given is ADME, cell-free. The following applies: read-out: Stability.
For data set [11], the target named is Epidermal growth factor receptor (Homo sapiens) (UniProt P00533). In words: Inhibition of human EGFR relative to control. The following applies: concentration not given here.
In data set [12] the target is Tyrosine-protein kinase Lyn (Homo sapiens) (UniProt P07948). In words: Inhibition of human LYN relative to control. The following applies: concentration not given here.
Data set [13] has as its target T3, Receptor-interacting serine/threonine-protein kinase 2. In words: Inhibition of N-terminal polyHis-tagged human RIPK2 (8 to 310 residues) expressed in Sf9 cells using MBP as substrate preincubated for 15 mins followed by ATP addition measured after 90 mins by ADP-Glo assay.
A short description of data set [14]: Metabolic stability in mouse liver microsomes assessed as compound remaining at 10 uM incubated for 45 mins by ECHO-MS analysis. The class given is ADME, Microsome. The conditions noted are these: read-out: Stability.
Data set [15] is described as follows: Metabolic stability in human plasma assessed as compound remaining at 5 uM incubated for 120 mins by ECHO-MS analysis. In kind it is ADME, cell-free. The following applies: read-out: Stability.
Data set [16] concerns the target Tyrosine-protein kinase Fyn (Homo sapiens) (UniProt P06241). In words: Inhibition of human FYN relative to control. The following applies: concentration not given here.
Data set [17] addresses MAP kinase-interacting serine/threonine-protein kinase 2 (Homo sapiens) (UniProt Q9HBH9). In words: Inhibition of human MNK2 relative to control. The conditions noted are these: concentration not given here.
Data set [18] has as its system HT-29. Briefly: Cytotoxicity against human HT-29 cells assessed as cell viability at 10 uM incubated for 24 hrs by Cell Titer Glo assay. In kind it is toxicity, cell-based. The following applies: ht-29, 24 h.

Here are results for 3 compounds from ChEMBL document CHEMBL5625233, “Exploring positions 6 and 7 of a quinazoline-based scaffold leads to changes in selectivity and potency towards RIPK2/3 kinases” (Eur J Med Chem, 2023).

pIC50: −log10 of the molar value.

As a reminder, the pIC50 is −log10 of the IC50, conventionally taken in molar units. The term inhibition denotes the change of the read-out against control, counted positive when it falls.

Sequence of Receptor-interacting serine/threonine-protein kinase 3 (Q9Y572 whole entry, the tested form may be a part): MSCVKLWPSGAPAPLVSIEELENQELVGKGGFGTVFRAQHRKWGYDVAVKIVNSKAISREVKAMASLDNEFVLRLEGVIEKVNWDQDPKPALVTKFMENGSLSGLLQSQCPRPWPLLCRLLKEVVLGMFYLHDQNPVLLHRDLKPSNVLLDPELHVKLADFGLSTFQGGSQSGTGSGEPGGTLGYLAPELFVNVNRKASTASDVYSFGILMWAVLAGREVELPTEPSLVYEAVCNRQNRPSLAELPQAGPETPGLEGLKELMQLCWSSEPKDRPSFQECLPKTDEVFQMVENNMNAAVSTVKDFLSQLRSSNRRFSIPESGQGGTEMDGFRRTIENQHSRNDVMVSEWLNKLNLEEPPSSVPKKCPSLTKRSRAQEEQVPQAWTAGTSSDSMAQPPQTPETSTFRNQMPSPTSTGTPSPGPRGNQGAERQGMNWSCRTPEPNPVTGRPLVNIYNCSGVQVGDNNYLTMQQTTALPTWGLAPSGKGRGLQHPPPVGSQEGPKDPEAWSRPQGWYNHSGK
T3 sequence (O43353 whole entry): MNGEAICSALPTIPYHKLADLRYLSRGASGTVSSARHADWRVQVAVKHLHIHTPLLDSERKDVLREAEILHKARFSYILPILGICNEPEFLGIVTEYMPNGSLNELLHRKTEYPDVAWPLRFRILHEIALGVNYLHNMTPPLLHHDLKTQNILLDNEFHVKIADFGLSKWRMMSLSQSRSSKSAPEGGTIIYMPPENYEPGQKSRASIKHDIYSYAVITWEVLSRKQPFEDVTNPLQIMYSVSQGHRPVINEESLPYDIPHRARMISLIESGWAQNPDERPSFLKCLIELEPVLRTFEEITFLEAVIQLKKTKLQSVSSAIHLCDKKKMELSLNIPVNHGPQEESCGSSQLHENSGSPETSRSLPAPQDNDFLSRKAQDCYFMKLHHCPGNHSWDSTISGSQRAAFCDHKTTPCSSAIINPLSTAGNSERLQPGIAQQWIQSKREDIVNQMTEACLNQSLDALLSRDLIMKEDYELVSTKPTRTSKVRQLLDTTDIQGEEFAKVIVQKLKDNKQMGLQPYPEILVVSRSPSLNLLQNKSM
Sequence of Vascular endothelial growth factor receptor 2 (Homo sapiens) (P35968 whole entry): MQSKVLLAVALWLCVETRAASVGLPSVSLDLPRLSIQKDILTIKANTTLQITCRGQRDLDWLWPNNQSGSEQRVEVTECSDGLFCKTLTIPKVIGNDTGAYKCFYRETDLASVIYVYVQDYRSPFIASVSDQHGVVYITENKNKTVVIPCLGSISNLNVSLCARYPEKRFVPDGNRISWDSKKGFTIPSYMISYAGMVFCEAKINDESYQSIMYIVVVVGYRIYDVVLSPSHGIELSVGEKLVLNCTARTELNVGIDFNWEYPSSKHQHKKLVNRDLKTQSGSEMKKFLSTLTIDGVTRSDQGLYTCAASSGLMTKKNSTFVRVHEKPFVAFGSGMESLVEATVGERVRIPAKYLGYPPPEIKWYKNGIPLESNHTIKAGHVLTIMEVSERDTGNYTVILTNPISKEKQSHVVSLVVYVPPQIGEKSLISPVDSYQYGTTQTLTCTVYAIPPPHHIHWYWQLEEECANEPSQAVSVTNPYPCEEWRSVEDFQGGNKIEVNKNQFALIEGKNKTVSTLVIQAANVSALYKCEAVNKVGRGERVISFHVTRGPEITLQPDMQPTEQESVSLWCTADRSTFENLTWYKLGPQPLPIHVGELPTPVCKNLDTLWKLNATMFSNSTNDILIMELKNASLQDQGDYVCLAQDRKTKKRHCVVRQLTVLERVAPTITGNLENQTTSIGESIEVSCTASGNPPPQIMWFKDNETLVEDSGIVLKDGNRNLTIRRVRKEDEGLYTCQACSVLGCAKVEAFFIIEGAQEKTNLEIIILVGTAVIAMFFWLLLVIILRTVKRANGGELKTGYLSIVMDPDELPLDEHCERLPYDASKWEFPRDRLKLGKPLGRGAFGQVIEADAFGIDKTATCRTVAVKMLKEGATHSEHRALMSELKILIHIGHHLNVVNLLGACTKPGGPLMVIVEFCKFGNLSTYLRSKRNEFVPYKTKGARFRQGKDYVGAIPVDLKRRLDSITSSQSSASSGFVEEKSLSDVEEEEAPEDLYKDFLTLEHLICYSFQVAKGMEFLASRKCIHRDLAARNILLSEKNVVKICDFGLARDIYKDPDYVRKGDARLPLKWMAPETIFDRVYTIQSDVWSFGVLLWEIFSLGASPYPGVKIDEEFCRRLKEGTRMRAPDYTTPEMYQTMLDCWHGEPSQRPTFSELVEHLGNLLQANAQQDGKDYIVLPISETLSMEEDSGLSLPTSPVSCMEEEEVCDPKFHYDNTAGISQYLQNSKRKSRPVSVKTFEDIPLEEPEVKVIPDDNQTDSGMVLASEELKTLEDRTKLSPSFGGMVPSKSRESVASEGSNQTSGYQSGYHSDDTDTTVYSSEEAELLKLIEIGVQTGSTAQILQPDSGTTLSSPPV
Sequence of Serine/threonine-protein kinase 10 (Homo sapiens) (O94804 whole entry, looked up): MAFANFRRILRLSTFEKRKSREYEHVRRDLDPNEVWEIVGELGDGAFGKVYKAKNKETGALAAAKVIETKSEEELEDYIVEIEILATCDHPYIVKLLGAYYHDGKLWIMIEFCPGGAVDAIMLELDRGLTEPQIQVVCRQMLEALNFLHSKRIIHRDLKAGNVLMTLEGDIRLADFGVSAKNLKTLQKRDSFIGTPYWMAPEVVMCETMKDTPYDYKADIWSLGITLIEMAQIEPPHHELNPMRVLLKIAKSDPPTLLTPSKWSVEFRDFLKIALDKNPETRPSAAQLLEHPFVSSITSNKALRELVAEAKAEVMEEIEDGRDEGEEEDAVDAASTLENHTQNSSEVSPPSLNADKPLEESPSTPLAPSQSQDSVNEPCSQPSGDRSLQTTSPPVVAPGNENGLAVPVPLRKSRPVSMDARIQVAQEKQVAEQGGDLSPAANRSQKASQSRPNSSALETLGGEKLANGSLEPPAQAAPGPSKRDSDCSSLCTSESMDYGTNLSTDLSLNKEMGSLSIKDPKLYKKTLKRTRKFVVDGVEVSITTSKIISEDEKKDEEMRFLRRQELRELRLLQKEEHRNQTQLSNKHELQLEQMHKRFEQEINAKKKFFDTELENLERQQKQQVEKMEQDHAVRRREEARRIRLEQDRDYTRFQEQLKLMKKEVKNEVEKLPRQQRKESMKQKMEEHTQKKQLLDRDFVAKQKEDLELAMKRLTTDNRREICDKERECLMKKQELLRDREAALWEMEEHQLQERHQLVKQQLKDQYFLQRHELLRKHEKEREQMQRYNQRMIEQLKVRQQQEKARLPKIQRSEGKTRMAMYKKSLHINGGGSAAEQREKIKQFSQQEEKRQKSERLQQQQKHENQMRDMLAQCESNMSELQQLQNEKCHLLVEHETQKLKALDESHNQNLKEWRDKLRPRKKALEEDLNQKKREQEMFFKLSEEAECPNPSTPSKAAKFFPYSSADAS
Sequence of Epidermal growth factor receptor (Homo sapiens) (P00533 whole entry): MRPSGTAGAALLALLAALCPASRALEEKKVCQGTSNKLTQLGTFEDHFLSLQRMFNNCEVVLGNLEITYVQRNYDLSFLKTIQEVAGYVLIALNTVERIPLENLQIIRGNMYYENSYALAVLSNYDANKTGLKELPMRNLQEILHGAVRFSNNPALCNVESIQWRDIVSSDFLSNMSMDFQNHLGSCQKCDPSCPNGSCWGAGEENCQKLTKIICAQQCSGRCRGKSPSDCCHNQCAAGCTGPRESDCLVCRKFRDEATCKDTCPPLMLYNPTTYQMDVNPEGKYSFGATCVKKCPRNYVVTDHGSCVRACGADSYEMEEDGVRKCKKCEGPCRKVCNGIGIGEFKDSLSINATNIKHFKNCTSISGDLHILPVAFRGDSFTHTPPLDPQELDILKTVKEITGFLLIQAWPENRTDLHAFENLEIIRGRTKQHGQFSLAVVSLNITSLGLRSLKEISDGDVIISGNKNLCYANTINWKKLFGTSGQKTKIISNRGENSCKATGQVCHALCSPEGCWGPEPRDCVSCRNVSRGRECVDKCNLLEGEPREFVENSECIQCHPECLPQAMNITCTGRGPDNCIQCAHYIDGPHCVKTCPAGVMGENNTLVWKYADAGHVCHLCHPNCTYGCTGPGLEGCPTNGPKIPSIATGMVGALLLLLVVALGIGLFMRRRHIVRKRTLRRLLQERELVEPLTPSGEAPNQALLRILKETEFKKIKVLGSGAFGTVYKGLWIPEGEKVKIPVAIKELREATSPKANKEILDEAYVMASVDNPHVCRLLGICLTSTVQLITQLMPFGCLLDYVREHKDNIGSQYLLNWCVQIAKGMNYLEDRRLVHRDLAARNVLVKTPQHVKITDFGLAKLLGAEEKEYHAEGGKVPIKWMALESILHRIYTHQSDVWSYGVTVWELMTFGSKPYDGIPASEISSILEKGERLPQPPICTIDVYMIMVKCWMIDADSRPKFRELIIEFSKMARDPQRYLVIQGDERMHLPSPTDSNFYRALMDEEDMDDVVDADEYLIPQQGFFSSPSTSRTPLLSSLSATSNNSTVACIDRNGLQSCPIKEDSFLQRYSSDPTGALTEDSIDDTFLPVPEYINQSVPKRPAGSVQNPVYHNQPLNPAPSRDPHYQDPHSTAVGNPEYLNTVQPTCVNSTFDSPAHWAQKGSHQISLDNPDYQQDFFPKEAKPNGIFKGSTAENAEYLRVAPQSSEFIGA
Sequence of Tyrosine-protein kinase Lyn (Homo sapiens) (P07948 2-512 limits assumed): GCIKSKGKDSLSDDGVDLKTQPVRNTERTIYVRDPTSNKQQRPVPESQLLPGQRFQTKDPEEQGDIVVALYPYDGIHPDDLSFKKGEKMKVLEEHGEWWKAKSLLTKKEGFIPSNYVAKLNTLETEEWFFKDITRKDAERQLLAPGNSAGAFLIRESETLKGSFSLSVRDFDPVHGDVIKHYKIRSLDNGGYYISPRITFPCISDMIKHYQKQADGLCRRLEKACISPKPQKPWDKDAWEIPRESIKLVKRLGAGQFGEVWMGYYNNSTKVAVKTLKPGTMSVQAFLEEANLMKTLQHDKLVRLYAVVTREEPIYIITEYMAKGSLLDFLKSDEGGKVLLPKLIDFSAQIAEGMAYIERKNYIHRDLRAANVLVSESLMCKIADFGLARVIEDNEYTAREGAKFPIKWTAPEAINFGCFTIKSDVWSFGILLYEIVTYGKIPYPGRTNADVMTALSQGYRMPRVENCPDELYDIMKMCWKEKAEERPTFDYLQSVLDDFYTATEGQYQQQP

As to `OCc1ccc(-c2cc3ncnc(Nc4ccc5scnc5c4)c3cc2-c2cccs2)o1`, the pIC50 is < 4.30 in data set [1]; < 4.30 in [3]; 7.85 in data set [4]; 7.57 in data set [8]; 6.93 in [9]; 8.52 in [13]. Besides, the inhibition in [2] is 70%; in [5] it was 94%; in data set [6] it was 83%; in data set [11] it was 79%; in data set [12], 94%; in data set [16], 94%. For the same compound, the Stability in data set [7] is reported as 124%. Also, the remaining at 2 h, 5 µM in data set [10] came to 107%; in data set [15] it was 108%. For the same compound, in data set [14], the remaining at 0.75 h, 10 µM was 114%.

Regarding `c1csc(-c2ccc3ncnc(Nc4ccc5scnc5c4)c3c2)c1`, the pIC50 is < 4.30 in data set [1]; < 4.30 in data set [3]; 6.97 in data set [4]; 6.92 in data set [8]; 6.40 in data set [9]; 8.40 in data set [13]. For the same compound, the inhibition in data set [5] turned out to be 69%; in data set [6] it was 50%; in data set [11], 54%; in data set [17], 54%; in data set [16] it was 71%.

Consider `Cn1cccc1-c1cc2c(Nc3ccc4scnc4c3)ncnc2cc1-c1cccc(CO)c1`, for which the pIC50 is < 4.30 in data set [1]; < 4.30 in data set [3]; 6.92 in data set [4]; 7.02 in data set [8]; 6.85 in data set [9]; 8.30 in data set [13]. In data set [5], this compound showed an inhibition of 74%. Further, the Stability in data set [7] is 124%. Besides, the remaining at 2 h, 5 µM in data set [10] came to 119%; in data set [15], 112%. For the same compound, the Activity entry in data set [18] was “Toxic”. Also, in [14], the remaining at 0.75 h, 10 µM worked out at 93%.
